Data reported in US20240000748A1, “FORMULATIONS AND METHODS FOR TREATING ACUTE CANNABINOID OVERDOSE” (Anebulo Pharmaceuticals, Inc., priority 2020, published 2024).

What was measured:
C57 mice = experiment: Reversal of THC-induced hypolocomotion in mice; assay type: in vivo; conditions: 30 min pre-test
Protocol: Reversal of THC-induced hypolocomotion in mice: Six C57 mice (Charles River, Wilmington, MA) were administered […] (THC) 3 mg/kg ip, 10 min pre-test. […] In this apparatus, four qualitatively different measures of locomotor activity are automatically scored. […] The magnitude of the effect is similar to that elicited by rimonabant given at 3 mg/kg po, and given 30 min pre-test.

rat = experiment: Repeated dose (28 day) toxicity study in rat; assay type: in vivo; conditions: repeated dose 28 day
Protocol: Repeated dose (28 day) toxicity studies were conducted using ANEB-001 in two species, rat and primate, selected on the basis of acceptable bioavailability and comparison of metabolite profiles with those in human liver microsomes.

| Structure (SMILES) | action of THC on the total active time parameter of locomotor measures (C57 mice; 30 mg/kg orally, THC 3 mg/kg ip 10 min pre-test, 15 min in locomotor activity cages) | findings at dose levels of 75 mg/kg/day (rat; 75 mg/kg/day) | no observed adverse effect level (rat; highest dose tested) [mg/kg/day] | magnitude of the effect on THC-induced hypolocomotion (compared with ANEB-001) (C57 mice; 3 mg/kg po) |
| --- | --- | --- | --- | --- |
| CC(C)(C)NC(=O)N1CC(O[C@H](c2ccc(Cl)cc2)c2ccccc2C(F)(F)F)C1 [ANEB-001, 3-[(R)-2-(trifluoromethyl)-4′-chlorobenzhydryloxy]-N-(tert-butyl)azetidine-1-carboxamide] | significantly reversed | hepatic changes consistent with an adaptive response | 75 |  |
| Cc1c(C(=O)NN2CCCCC2)nn(-c2ccc(Cl)cc2Cl)c1-c1ccc(Cl)cc1 [rimonabant, reference compound] |  |  |  | similar |
